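Test compounds were applied to cells in 96-well plates for 48 hours at 5 doses. Here, GI50 denotes the concentration required for 50% inhibition of growth.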 Active and inactive are the calls of the source. Rule as the data show it: active = GI50 up to about 1.1 µM and inactive = higher.
Legend:
Test in all cases: growth of human tumour cells (NCI), 48 h
CCRF-CEM = system: CCRF-CEM
DU-145 = system: DU-145
EKVX = system: EKVX
Hs-578T = system: Hs-578T
K562 = system: K562
M14 = system: M14
MDA-MB-435 = system: MDA-MB-435
Malme-3M = system: Malme-3M
NCI-H23 = system: NCI-H23
OVCAR-3 = system: OVCAR-3
OVCAR-5 = system: OVCAR-5
OVCAR-8 = system: OVCAR-8
PC-3 = system: PC-3
RPMI-8226 = system: RPMI-8226
RXF 393 = system: RXF 393
SN12C = system: SN12C
SW-620 = system: SW-620
UACC-257 = system: UACC-257
UO-31 = system: UO-31
MCF7 = system: MCF7

Measured: GI50

CC1CC(N)=Nc2ccccc2N1 (configuration not stated)
inactive: CCRF-CEM > 100 µM | DU-145 > 100 µM | EKVX > 100 µM | Hs-578T > 100 µM | K562 > 100 µM | M14 > 100 µM | MDA-MB-435 > 100 µM | Malme-3M 58.2 µM | NCI-H23 > 100 µM | OVCAR-3 > 100 µM | OVCAR-5 > 100 µM | OVCAR-8 > 100 µM | PC-3 > 100 µM | RPMI-8226 > 100 µM | RXF 393 > 100 µM | SN12C > 100 µM | SW-620 > 100 µM | UACC-257 > 100 µM | UO-31 > 100 µM

CCC(=O)Nc1ccc(/N=N/N(C)C)cc1
inactive: DU-145 > 100 µM | EKVX > 100 µM | Hs-578T > 100 µM | K562 50.2 µM | M14 > 100 µM | MCF7 > 100 µM | MDA-MB-435 > 100 µM | Malme-3M 2.13 µM | NCI-H23 7.26 µM | OVCAR-5 > 100 µM | OVCAR-8 > 100 µM | PC-3 > 100 µM | RXF 393 > 100 µM | SN12C > 100 µM | SW-620 > 100 µM | UACC-257 > 100 µM | UO-31 > 100 µM

Cn1cnc([N+](=O)[O-])c1Sc1nc(N)nc2c1ncn2C1OC(CO)C(O)C1O (configuration not stated)
inactive: CCRF-CEM 3.15 µM | DU-145 2.36 µM | EKVX 8.39 µM | Hs-578T 1.97 µM | K562 5.13 µM | M14 2.28 µM | MDA-MB-435 1.5 µM | Malme-3M 17.8 µM | NCI-H23 4.16 µM | OVCAR-3 4.9 µM | OVCAR-5 1.88 µM | OVCAR-8 2.51 µM | PC-3 1.52 µM | RPMI-8226 2.98 µM | RXF 393 3.78 µM | SN12C 7.11 µM | SW-620 28.1 µM | UACC-257 15.2 µM | UO-31 5.12 µM

O=C(CCN1CCCC1)Nc1ccc2sc3ccccc3c(=O)c2n1
inactive: CCRF-CEM 10.2 µM | DU-145 15.4 µM | EKVX 12.4 µM | Hs-578T 11.8 µM | K562 13.8 µM | M14 13.2 µM | MCF7 13 µM | MDA-MB-435 12.7 µM | Malme-3M 13.1 µM | NCI-H23 13.1 µM | OVCAR-3 14.5 µM | OVCAR-5 12.9 µM | OVCAR-8 11.4 µM | PC-3 13.5 µM | RPMI-8226 12 µM | SN12C 10.1 µM | SW-620 12.4 µM | UACC-257 12.2 µM | UO-31 11.7 µM

COC(=O)CN1SC2(SC13C(C)(C)C(=O)C3(C)C)C(C)(C)C(=O)C2(C)C
inactive: CCRF-CEM 11.1 µM | DU-145 31.5 µM | EKVX 63.4 µM | Hs-578T > 100 µM | K562 52.6 µM | M14 > 100 µM | MCF7 54.2 µM | MDA-MB-435 56.2 µM | Malme-3M 50.6 µM | NCI-H23 > 100 µM | OVCAR-3 41.6 µM | OVCAR-5 > 100 µM | OVCAR-8 64.4 µM | PC-3 29.2 µM | RPMI-8226 49.8 µM | SN12C 48.3 µM | SW-620 68.7 µM | UACC-257 48.2 µM | UO-31 86.3 µM

O=C1C=C(N2CCCC2)C(=O)c2c(O)ccc(O)c21
inactive: CCRF-CEM 1.71 µM | DU-145 > 10 µM | EKVX > 10 µM | Hs-578T > 10 µM | K562 2.92 µM | M14 6.32 µM | MCF7 9.57 µM | Malme-3M 3.93 µM | OVCAR-3 > 10 µM | OVCAR-5 > 10 µM | OVCAR-8 > 10 µM | PC-3 > 10 µM | RXF 393 > 10 µM | SN12C > 10 µM | SW-620 > 10 µM | UACC-257 > 10 µM | UO-31 > 10 µM

COc1cc2c(c(O)c1OC)CC1CCC(=O)N1C2c1cccc2ccccc12 (configuration not stated)
inactive: CCRF-CEM 30.8 µM | DU-145 18.5 µM | EKVX 22.3 µM | Hs-578T 19.7 µM | K562 35.3 µM | M14 17.4 µM | MCF7 30.9 µM | MDA-MB-435 19.2 µM | Malme-3M 21.8 µM | NCI-H23 24 µM | OVCAR-3 22.2 µM | OVCAR-5 19.1 µM | OVCAR-8 20 µM | PC-3 15.6 µM | RPMI-8226 19.3 µM | SN12C 16.9 µM | SW-620 27.7 µM | UACC-257 23.6 µM | UO-31 17.6 µM

C/C(=N\O)c1ccc(Nc2nc3ccccc3c3occc23)cc1
inactive: CCRF-CEM 4 µM | DU-145 9.57 µM | EKVX 21.7 µM | Hs-578T 9.18 µM | K562 2.19 µM | M14 4.86 µM | MCF7 3.42 µM | MDA-MB-435 6.58 µM | Malme-3M 19.9 µM | NCI-H23 15.6 µM | OVCAR-3 12.4 µM | OVCAR-5 8.3 µM | OVCAR-8 15.2 µM | PC-3 10.6 µM | RPMI-8226 2.58 µM | SN12C 13.1 µM | UACC-257 5.12 µM | UO-31 15.9 µM

From ChEMBL document CHEMBL1201862, “PubChem BioAssay data set” (2004)
